Reference: patent US11370785B2, “Multicyclic compounds as farnesoid X receptor modulators” (BRISTOL-MYERS SQUIBB COMPANY, priority 2017, dated 2022)

Assays:
human FXR = target: T1, human FXR (Homo sapiens, UniProt Q96RI1); experiment: transient human FXR/Gal4-luciferase reporter assay; assay type: cell-based; conditions: Gal4-hFXR reporter in HEK293 cells; read-out: HLE GAL-FXR EC50
T1 construct: expressed in transfected cells; host or cells: HEK293 cells stably carrying a 5xGal4-response-element firefly luciferase reporter, transiently transfected with the pcDNA3.1-Gal4-FXR plasmid
T1 sequence (Q96RI1 262-486 limits assumed): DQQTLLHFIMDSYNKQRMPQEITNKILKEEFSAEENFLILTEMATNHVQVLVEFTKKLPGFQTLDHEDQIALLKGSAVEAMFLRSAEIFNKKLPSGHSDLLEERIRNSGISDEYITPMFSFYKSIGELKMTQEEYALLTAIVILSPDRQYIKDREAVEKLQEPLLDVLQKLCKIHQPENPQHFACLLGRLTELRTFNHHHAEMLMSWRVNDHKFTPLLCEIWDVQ
Outline: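 HEK293 cells stably carrying a 5×Gal4-response-element firefly luciferase reporter, transiently transfected with a CMV-driven Gal4 DNA-binding domain–human FXR ligand-binding domain fusion, were treated overnight at 37 °C with serially diluted compounds. Luminescence was read by Steady-Glo; DMSO background was subtracted and signal expressed as percent of the 8 μM GW-4064 response.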

Fgf15 = experiment: Acute mouse in vivo assay, Fgf15 gene expression in ileum; conditions: 3 mg/kg single oral dose, @ 6 h
Experimental: Acute Mouse In Vivo Assay:
Male, C57BL6/NTac mice, weighing 25-28 g, are purchased from Taconic Labs (Hudson, N.Y.) and maintained on Teklad Global 18% Protein Rodent Diet (Harlan Laboratories). After 1 week acclimation, mice are sorted into groups based upon body weight. Mice are administered a single oral dose of vehicle or experimental compound. Systemic compound exposure is evaluated in plasma derived from blood collected via the submandibular vein at 1 hour post-dose, and at study termination (6 h). At study termination, the animals are euthanized and rapidly dissected. The medial lobe of the liver is divided, with one half being homogenized and analyzed for compound exposure, and the other half saved in RNAlater (Thermo-Fisher Scientific). The ileum is also dissected and preserved in RNAlater. Tissue samples in RNAlater are homogenized with MP Biomedicals' beads. […] RNA Concentration is determined with the Nano-Drop 8000 Spectrophotometer (Thermo Fisher). […] Mouse genes analyzed include Nr0b2 (which encodes the small heterodimer partner, SHP), Abcb11 (which encodes the bile salt excretion pump, BSEP), Cyp7a1, & Cyp8b1 in liver, and Fgf15, Fabp6 (which encodes ileal bile acid binding protein, I-BABP), Slc51a (which encodes organic solute transporter alpha subunit, OSTA), and Slc51b (which encodes organic solute transporter beta subunit, OSTB) in the ileum. […]

For O=C(O)c1cc(C(F)(F)F)c2cc(N3CCC4(CC3)CC(Cc3c(-c5ccccc5C(F)(F)F)noc3C3CC3)C4)ccc2n1 [Example 4, 6-(2-((5-Cyclopropyl-3-(2-(trifluoromethyl)phenyl)isoxazol-4-yl)methyl)-7-azaspiro[3.5]nonan-7-yl)-4-(trifluoromethyl)quinoline-2-carboxylic acid], the EC50 (human FXR) was 26 nM and the “Fgf15 expression, fold increase relative to vehicle control” value (Fgf15) was “+24 x”.
